# Test results reported in US12606541B2, “PPARg modulators and methods of use” (Eisai R&D Management Co., Ltd., priority 2020, dated 2026).
# Where two headings read alike, the source gives them in different places.
# Tests used:
# His6-TEV-PPARγ-(234-505) = biological target: T1, His6-TEV-PPARγ-(234-505) (Homo sapiens, UniProt P37231); assay: TR-FRET Assay to Measure Co-R Peptide Recruitment to PPARγ; type: biochemical; details: Co-R peptide (SMRT-ID2) recruitment; top final concentration 20 μM; read-out: TR-FRET i-Ag; AC50
# T1 construct: The His6-TEV-PPARγ-(234-505) protein for assay was expressed and purified; TEV cleavage site (N); made in house
# T1 sequence (P37231 234-505): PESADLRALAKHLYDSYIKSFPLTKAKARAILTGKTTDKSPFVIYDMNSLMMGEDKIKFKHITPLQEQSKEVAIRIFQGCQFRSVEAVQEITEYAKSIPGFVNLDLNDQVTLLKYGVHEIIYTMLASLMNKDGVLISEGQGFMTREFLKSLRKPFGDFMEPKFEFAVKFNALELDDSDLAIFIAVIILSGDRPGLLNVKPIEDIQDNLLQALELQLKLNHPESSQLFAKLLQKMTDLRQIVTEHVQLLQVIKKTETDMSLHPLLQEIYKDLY
# Procedure, shortened: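 His-tagged PPARγ (or controls) was preincubated with compound for 20 minutes at room temperature, then 5 nM anti-His terbium antibody and 200 nM FITC-labeled SMRT-ID2 corepressor peptide (final) were added for a further hour. TR-FRET signal was normalized to percent response using 500 nM T0070907 and DMSO controls.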
# UM-UC-9 engineered cells = assay: Cell proliferation / short-term viability assay, CellTiter-Glo 144 h; type: cell-based, human; details: read-out: CTGlo 144 h UMUC9.5, G150
# Procedure, shortened: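 UM-UC-9 engineered assay-ready cells seeded at 500 cells/well in high-glucose DMEM/10% FBS, treated from dose-response plates, grown at 37° C, 5% CO2. CellTiter-Glo 2.0 luminescence read on day 7, with a day-0 pretreatment plate as T0 reference and DMSO wells as negative control.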
smiles,measurement,setting,value
"COc1cc(-c2cc(C(=O)N3CC[C@@H](C(=O)NCc4cccc(Cl)c4)C[C@H]3C)n[nH]2)c(Cl)cn1 [Example 273, (2R,4R)-1-(5-(5-chloro-2-methoxypyridin-4-yl)-1H-pyrazole-3-carbonyl)-N-(3-chlorobenzyl)-2-methylpiperidine-4-carboxamide]",AC50,His6-TEV-PPARγ-(234-505),26.7 nM
same,IC50,"UM-UC-9 engineered cells; Homo sapiens, UM-UC-9, 144 h",213 nM
"COc1cc(-c2cc(C(=O)N3CCC(C(=O)NC4CCC5(CCO5)CC4)CC3)n[nH]2)c(F)cn1 (stereo not drawn) [Example 276, 1-(5-(5-fluoro-2-methoxypyridin-4-yl)-1H-pyrazole-3-carbonyl)-N-(1-oxaspiro[3.5]nonan-7-yl)piperidine-4-carboxamide]",AC50,His6-TEV-PPARγ-(234-505),813 nM
same,IC50,"UM-UC-9 engineered cells; Homo sapiens, UM-UC-9, 144 h",> 4000 nM
"COc1cc(-c2cc(C(=O)N3[C@@H]4CC[C@H]3C[C@H](C(=O)NCc3ccc5c(c3)c(F)nn5C)C4)n[nH]2)c(F)cn1 [Example 277, (1R,3s,5S)—N-((3-fluoro-1-methyl-1H-indazol-5-yl)methyl)-8-(5-(5-fluoro-2-methoxypyridin-4-yl)-1H-pyrazole-3-carbonyl)-8-azabicyclo[3.2.1]octane-3-carboxamide]",AC50,His6-TEV-PPARγ-(234-505),3.3 nM
same,IC50,"UM-UC-9 engineered cells; Homo sapiens, UM-UC-9, 144 h",29 nM
"COc1cc(-c2cc(C(=O)N3CCC(C(=O)NCc4ccc5c(c4)C(C)(C)CN5)CC3)n[nH]2)c(F)cn1 [Example 278, N-((3,3-dimethylindolin-5-yl)methyl)-1-(5-(5-fluoro-2-methoxypyridin-4-yl)-1H-pyrazole-3-carbonyl)piperidine-4-carboxamide]",AC50,His6-TEV-PPARγ-(234-505),75.1 nM
same,IC50,"UM-UC-9 engineered cells; Homo sapiens, UM-UC-9, 144 h",478 nM
"Cc1cc(-c2cc(C(=O)N3[C@@H]4CC[C@H]3C[C@H](C(=O)N[C@H]3CC[C@@](O)(C(F)(F)F)CC3)C4)n[nH]2)ncn1 [Example 279, (1R,3s,5S)—N-((1r,4R)-4-hydroxy-4-(trifluoromethyl)cyclohexyl)-8-(5-(6-methylpyrimidin-4-yl)-1H-pyrazole-3-carbonyl)-8-azabicyclo[3.2.1]octane-3-carboxamide]",AC50,His6-TEV-PPARγ-(234-505),24.6 nM
same,IC50,"UM-UC-9 engineered cells; Homo sapiens, UM-UC-9, 144 h",290 nM
"COc1cc(-c2cc(C(=O)N3C4COCC3CC(C(=O)N[C@H]3CC[C@@](O)(C(F)(F)F)CC3)C4)n[nH]2)c(F)cn1 (stereo partly drawn) [Example 282, 9-(5-(5-fluoro-2-methoxypyridin-4-yl)-1H-pyrazole-3-carbonyl)-N-((1r,4r)-4-hydroxy-4-(trifluoromethyl)cyclohexyl)-3-oxa-9-azabicyclo[3.3.1]nonane-7-carboxamide]",AC50,His6-TEV-PPARγ-(234-505),59 nM
same,IC50,"UM-UC-9 engineered cells; Homo sapiens, UM-UC-9, 144 h",293 nM
"Cc1cc(-c2cc(C(=O)N3[C@@H]4CC[C@H]3C[C@H](C(=O)N[C@H]3CC[C@@](O)(C(F)(F)F)CC3)C4)n[nH]2)c(F)cn1 [Example 283, (1R,3R,5S)-8-[5-(5-fluoro-2-methylpyridin-4-yl)-1H-pyrazole-3-carbonyl]-N-[(1r,4r)-4-hydroxy-4-(trifluoromethyl)cyclohexyl]-8-azabicyclo[3.2.1]octane-3-carboxamide]",AC50,His6-TEV-PPARγ-(234-505),7.5 nM
same,IC50,"UM-UC-9 engineered cells; Homo sapiens, UM-UC-9, 144 h",70.8 nM
"Cc1cc(-c2cc(C(=O)N3[C@@H]4CC[C@H]3C[C@H](C(=O)NCc3ccc5[nH]nc(F)c5c3)C4)n[nH]2)c(F)cn1 [Example 284, (1R,3s,5S)—N-((3-fluoro-1H-indazol-5-yl)methyl)-8-(5-(5-fluoro-2-methylpyridin-4-yl)-1H-pyrazole-3-carbonyl)-8-azabicyclo[3.2.1]octane-3-carboxamide]",AC50,His6-TEV-PPARγ-(234-505),2.3 nM
same,IC50,"UM-UC-9 engineered cells; Homo sapiens, UM-UC-9, 144 h",12.1 nM
"COc1cc(-c2cc(C(=O)N3[C@@H]4CC[C@H]3C[C@H](C(=O)NCc3ccc5[nH]c(C)c(C)c5c3)C4)n[nH]2)c(F)cn1 [Example 285, (1R,3R,5S)—N-[(2,3-dimethyl-1H-indol-5-yl)methyl]-8-[5-(5-fluoro-2-methoxypyridin-4-yl)-1H-pyrazole-3-carbonyl]-8-azabicyclo[3.2.1]octane-3-carboxamide]",AC50,His6-TEV-PPARγ-(234-505),7.9 nM
same,IC50,"UM-UC-9 engineered cells; Homo sapiens, UM-UC-9, 144 h",16.3 nM
"COc1cc(-c2cc(C(=O)N3[C@@H]4CC[C@H]3C[C@H](C(=O)NC3CC[Si](C)(C)CC3)C4)n[nH]2)c(F)cn1 [Example 291, (1R,3s,5S)—N-(1,1-dimethylsilinan-4-yl)-8-(5-(5-fluoro-2-methoxypyridin-4-yl)-1H-pyrazole-3-carbonyl)-8-azabicyclo[3.2.1]octane-3-carboxamide]",AC50,His6-TEV-PPARγ-(234-505),69.6 nM
same,IC50,"UM-UC-9 engineered cells; Homo sapiens, UM-UC-9, 144 h",150 nM
"COc1cc(-c2cc(C(=O)N3CCC(C(=O)N[C@@H]4CCN(c5ccccc5F)C4)CC34CC4)n[nH]2)c(F)cn1 (stereo partly drawn) [Example 296, 4-[5-(5-fluoro-2-methoxypyridin-4-yl)-1H-pyrazole-3-carbonyl]-N—[(R)-1-(2-fluorophenyl)pyrrolidin-3-yl]-4-azaspiro[2.5]octane-7-carboxamide]",AC50,His6-TEV-PPARγ-(234-505),19.8 nM
same,IC50,"UM-UC-9 engineered cells; Homo sapiens, UM-UC-9, 144 h",4.1 nM
"Cc1cc(-c2cc(C(=O)N3CC[C@H](C(=O)NC4CCC5(CCO5)CC4)CC34CC4)n[nH]2)ncn1 (stereo partly drawn) [Example 300-B, (S)-4-(5-(6-methylpyrimidin-4-yl)-1H-pyrazole-3-carbonyl)-N-(1-oxaspiro[3.5]nonan-7-yl)-4-azaspiro[2.5]octane-7-carboxamide]",AC50,His6-TEV-PPARγ-(234-505),995 nM
same,IC50,"UM-UC-9 engineered cells; Homo sapiens, UM-UC-9, 144 h",1510 nM
"COc1cc(-c2nc(C(=O)N3[C@@H]4CC[C@H]3CC(C(=O)NC3CCC(O)(C(F)(F)F)CC3)C4)n[nH]2)c(F)cn1 (stereo partly drawn) [Example 305, (1R,3S,5S)-8-[5-(5-fluoro-2-methoxypyridin-4-yl)-1H-1,2,4-triazole-3-carbonyl]-N-[(1r,4r)-4-hydroxy-4-(trifluoromethyl)cyclohexyl]-8-azabicyclo[3.2.1]octane-3-carboxamide]",AC50,His6-TEV-PPARγ-(234-505),217 nM
same,IC50,UM-UC-9 engineered cells,2270 nM
"Cc1cc(-c2c[nH]c(C(=O)N3CCC(C(=O)N[C@H]4CC[C@@](O)(C(F)(F)F)CC4)CC34CC4)n2)c(O)cn1 (stereo partly drawn) [Example 310, 4-(4-(5-hydroxy-2-methylpyridin-4-yl)-1H-imidazole-2-carbonyl)-N-((1r,4r)-4-hydroxy-4-(trifluoromethyl)cyclohexyl)-4-azaspiro[2.5]octane-7-carboxamide]",AC50,His6-TEV-PPARγ-(234-505),14 nM
same,IC50,"UM-UC-9 engineered cells; Homo sapiens, UM-UC-9, 144 h",99 nM
"Cc1nccc(-c2cc(C(=O)N3[C@@H]4CC[C@H]3C[C@H](C(=O)N[C@H]3CC[C@@](O)(C(F)(F)F)CC3)C4)n[nH]2)c1C [Example 314, (1R,3s,5S)-8-(5-(2,3-dimethylpyridin-4-yl)-1H-pyrazole-3-carbonyl)-N-((1r,4R)-4-hydroxy-4-(trifluoromethyl)cyclohexyl)-8-azabicyclo[3.2.1]octane-3-carboxamide]",AC50,His6-TEV-PPARγ-(234-505),347 nM
same,IC50,"UM-UC-9 engineered cells; Homo sapiens, UM-UC-9, 144 h",> 10000 nM
"Cc1cc(-c2cc(C(=O)N3[C@@H]4CC[C@H]3C[C@H](C(=O)N[C@H]3CC[C@@](O)(C(F)(F)F)CC3)C4)n[nH]2)c2cn[nH]c2n1 [Example 315, (1R,3s,5S)—N-((1r,4R)-4-hydroxy-4-(trifluoromethyl)cyclohexyl)-8-(5-(6-methyl-1H-pyrazolo[3,4-b]pyridin-4-yl)-1H-pyrazole-3-carbonyl)-8-azabicyclo[3.2.1]octane-3-carboxamide]",AC50,His6-TEV-PPARγ-(234-505),863 nM
same,IC50,"UM-UC-9 engineered cells; Homo sapiens, UM-UC-9, 144 h",> 10000 nM
"CCc1cc(-c2cc(C(=O)N3[C@@H]4CC[C@H]3C[C@H](C(=O)N[C@H]3CC[C@@](O)(C(F)(F)F)CC3)C4)n[nH]2)ccn1 [Example 316, (1R,3s,5S)-8-(5-(2-ethylpyridin-4-yl)-1H-pyrazole-3-carbonyl)-N-((1r,4R)-4-hydroxy-4-(trifluoromethyl)cyclohexyl)-8-azabicyclo[3.2.1]octane-3-carboxamide]",AC50,His6-TEV-PPARγ-(234-505),67.9 nM
same,IC50,"UM-UC-9 engineered cells; Homo sapiens, UM-UC-9, 144 h",3390 nM
"O=C(N[C@H]1CC[C@@](O)(C(F)(F)F)CC1)[C@@H]1C[C@H]2CC[C@@H](C1)N2C(=O)c1cc(-c2ccnc(CO)c2)[nH]n1 [Example 317, (1R,3s,5S)—N-((1r,4R)-4-hydroxy-4-(trifluoromethyl)cyclohexyl)-8-(5-(2-(hydroxymethyl)pyridin-4-yl)-1H-pyrazole-3-carbonyl)-8-azabicyclo[3.2]octane-3-carboxamide]",AC50,His6-TEV-PPARγ-(234-505),344 nM
same,IC50,"UM-UC-9 engineered cells; Homo sapiens, UM-UC-9, 144 h",> 10000 nM
COc1cc(-c2cc(C(=O)N3[C@@H]4CC[C@H]3C[C@H](C(=O)NC3CCC5(CC3)OCC5C(F)(F)F)C4)n[nH]2)c(F)cn1 (stereo partly drawn) [Example 318],AC50,His6-TEV-PPARγ-(234-505),340 nM
same,IC50,"UM-UC-9 engineered cells; Homo sapiens, UM-UC-9, 144 h",372 nM
"COc1cc(-c2cc(C(=O)N3[C@@H]4CC[C@H]3C[C@H](C(=O)NC3CCC5(CC3)OCC(F)C5F)C4)n[nH]2)c(F)cn1 (stereo partly drawn) [Example 319, (1R,3s,5S)—N-(3,41-difluoro-1-oxaspiro[4.5]decan-8-yl)-8-(5-(5-fluoro-2-methoxypyridin-4-yl)-1H-pyrazole-3-carbonyl)-8-azabicyclo[3.2.1]octane-3-carboxamide]",AC50,His6-TEV-PPARγ-(234-505),124 nM
same,IC50,"UM-UC-9 engineered cells; Homo sapiens, UM-UC-9, 144 h",232 nM
"COc1cc(-c2cc(C(=O)N3CC[C@H](C(=O)N[C@H]4CC[C@@](OCCN(C)C)(C(F)(F)F)CC4)CC34CC4)n[nH]2)c(F)cn1 [Example 329-A, (S)—N-((1r,4S)-4-(2-(dimethylamino)ethoxy)-4-(trifluoromethyl)cyclohexyl)-4-(5-(5-fluoro-2-methoxypyridin-4-yl)-1H-pyrazole-3-carbonyl)-4-azaspiro[2.5]octane-7-carboxamide]",AC50,His6-TEV-PPARγ-(234-505),7.5 nM
same,IC50,"UM-UC-9 engineered cells; Homo sapiens, UM-UC-9, 144 h",24.3 nM
